The values that follow come from ChEMBL document CHEMBL1127979, “Synthesis and anti-tumour activity of 6-methyl derivatives of flavone-8-acetic acid (FAA)” (Bioorg Med Chem Lett, 1994).

SMILES strings stand for the structures. Values after ≈ are worked out from the molar mass of the structure shown.

As usually defined, the IC50 is the point on the concentration scale where inhibition reaches its midpoint. A higher IC50 goes with weaker potency in that assay. For orientation: inhibition in vivo means the percentage by which the read-out fell short of the control.

The subject of one experiment is DLD-1. The experiment in a line: In vitro concentration required to inhibit DLD1 cells. The experiment is classed as functional, cell-based. The conditions noted are these: Homo sapiens.
The subject of a further experiment is HCT-8. The experiment in a line: In vitro concentration required to inhibit HCT18 cells. The class given is functional, cell-based. As to conditions: Homo sapiens.
The next experiment deals with MAC15A. Nature of the experiment: In vitro concentration required to inhibit MAC 15 A cells. The conditions noted are these: Mus musculus. The experiment is classed as functional, cell-based.
For the next experiment, the system named is MAC26. Nature of the experiment: In vitro concentration required to inhibit MAC 26 cells. The class given is functional, cell-based. As to conditions: Mus musculus.
The next experiment relates to K562. The experiment in a line: In vitro concentration required to inhibit K562 cells. The class given is functional, cell-based. The conditions noted are these: Homo sapiens.
For a further experiment, the system named is HT-29. Nature of the experiment: In vitro concentration required to inhibit HT-29 cells. The experiment is classed as functional, cell-based. As to conditions: Homo sapiens.
Another experiment relates to MAC16. Nature of the experiment: In vitro concentration required to inhibit MAC 16 cells. The class given is functional, cell-based. As to conditions: Mus musculus.
A further experiment has as its system HCLO cell line. Nature of the experiment: In vitro concentration required to inhibit HCLO cells. The class given is functional, cell-based. As to conditions: Homo sapiens.
A further experiment relates to HRT-18 cell line. Nature of the experiment: In vitro concentration required to inhibit HRT18 cells. The class given is functional, cell-based. The conditions noted are these: Homo sapiens.
A further experiment deals with Mus musculus. Nature of the experiment: In vivo antitumor activity in murine tumors at a dose of 200 mg/Kg. The class given is functional.

With `O=C(O)Cc1cccc2c(=O)cc(-c3ccccc3)oc12` [MITOFLAXONE], the concentration for half-maximal inhibition (IC50) with DLD-1 was more than 500 µg/mL; in the experiment on HCT-8, 245 µg/mL (≈ 874 µM); with MAC15A, 150 µg/mL (≈ 535 µM); in the experiment with MAC26, 208 µg/mL (≈ 742 µM); in the experiment with K562 it was 310 µg/mL (≈ 1110 µM); with HT-29 it was 390 µg/mL (≈ 1390 µM). The 50% inhibitory concentration (IC50) was 180 µg/mL (≈ 642 µM) in the experiment on MAC16, more than 500 µg/mL in the experiment on HCLO cell line and 95 µg/mL (≈ 339 µM) in the experiment on HRT-18 cell line. This compound showed an inhibition in vivo at 200 mg/kg with Mus musculus of 83%.
